# Results as given in patent publication US11951108B2, “Combination therapy for treating cancer” (Epizyme, Inc., priority 2016, dated 2024).
# Like-named read-outs stand apart in the source and are kept apart here.
# Assays:
# SKOV3 [1] = assay: In vitro combination study, ovarian cancer cell line SKOV3; conditions: 4+3 model
# OVMANA [2] = assay: In vitro combination study, ovarian cancer cell line OVMANA; conditions: OVMANA; 4+3 model
# TOV112D = assay: In vitro combination study, ovarian cancer cell line TOV112D; conditions: 4+3 model
# COV362 = assay: In vitro combination study, ovarian cancer cell line COV362; conditions: COV362; 4+3 model
# KURAMOCHI = assay: In vitro combination study, ovarian cancer cell line KURAMOCHI; conditions: KURAMOCHI; 4+3 model
# OV-90 [3] = assay: In vitro combination study, ovarian cancer cell line OV-90; conditions: OV-90; 4+3 model
# COV434 = conditions: 4+3 model
# SUM159PT [4] = assay: In vitro combination study, breast cancer cell line SUM159PT; conditions: ER/PR −/−, HER2 −, 7 day pre-treatment + 6 day co-treatment
# BT549 = assay: In vitro combination study, breast cancer cell line BT549; conditions: ER/PR −/−, HER2 −, 7 day pre-treatment + 6 day co-treatment
# HCC1419 = assay: In vitro combination study, breast cancer cell line HCC1419; conditions: ER/PR −/−, HER2 +, 7 day pre-treatment + 6 day co-treatment
# MDA-MB-175VII = assay: In vitro combination study, breast cancer cell line MDA-MB-175VII; conditions: ER/PR +/+, HER2 +, 7 day pre-treatment + 6 day co-treatment
# MDA-MB-231 = assay: In vitro combination study, breast cancer cell line MDA-MB-231; conditions: ER/PR −/−, HER2 −, 7 day pre-treatment + 6 day co-treatment
# SUM52PE = assay: In vitro combination study, breast cancer cell line SUM52PE; conditions: ER/PR −/−, HER2 −, 7 day pre-treatment + 6 day co-treatment
# DU4475 [5] = test system: DU4475
# OV-90 [6] = test system: OV-90
# SKOV3 [7] = test system: SKOV3
# COV644* = assay: In vitro combination study, ovarian cancer cell line COV644; conditions: COV644*; 7+3 model
# OVMANA [8] = test system: OVMANA
# ES-2 = assay: In vitro combination study, ovarian cancer cell line ES-2; conditions: 4+3 model
# HCC1143 [9] = test system: HCC1143
# SUM159PT [10] = test system: SUM159PT
# MDA-MB-453 = assay: In vitro combination study, breast cancer cell line MDA-MB-453; format: cell-based; conditions: ER/PR −/−, HER2 −, 7 day pre-treatment + 6 day co-treatment
# COV504 = conditions: COV504; 4+3 model
# A2780 = assay: In vitro combination study, ovarian cancer cell line A2780; conditions: A2780; 4+3 model
# DU4475 [11] = assay: In vitro combination study, breast cancer cell line DU4475; conditions: ER/PR −/−, HER2 −, 7 day pre-treatment + 6 day co-treatment
# JH)S-4 = assay: In vitro combination study, ovarian cancer cell line JH)S-4; conditions: 4+3 model
# BT-20 = assay: In vitro combination study, breast cancer cell line BT-20; conditions: ER/PR −/−, HER2 −, 7 day pre-treatment + 6 day co-treatment
# OVISE = assay: In vitro combination study, ovarian cancer cell line OVISE; conditions: OVISE; 4+3 model
# CAOV-3 = assay: In vitro combination study, ovarian cancer cell line CAOV-3; format: cell-based; conditions: 4+3 model
# HCC1143 [12] = assay: In vitro combination study, breast cancer cell line HCC1143; conditions: ER/PR −/−, HER2 −, 7 day pre-treatment + 6 day co-treatment
# TOV21G = assay: In vitro combination study, ovarian cancer cell line TOV21G; format: cell-based; conditions: 4+3 model
smiles,measurement,setting,value
Nc1ccccc1NC(=O)c1ccc(CNc2nccc(-c3cccnc3)n2)cc1 [Mocetinostat],Synergy or antagonism of second agent with tazemetostat (IC50 shift of second agent),SKOV3 [1],B (Synergy > 4× IC50 shift)
same,Synergy or antagonism of second agent with tazemetostat (IC50 shift of second agent),OVMANA [2],C (Synergy > 2× IC50 shift)
same,Synergy or antagonism of second agent with tazemetostat (IC50 shift of second agent),TOV112D,C (Synergy > 2× IC50 shift)
same,Synergy or antagonism of second agent with tazemetostat (IC50 shift of second agent),COV362,C (Synergy > 2× IC50 shift)
same,Synergy or antagonism of second agent with tazemetostat (IC50 shift of second agent),KURAMOCHI,C (Synergy > 2× IC50 shift)
same,Synergy or antagonism of second agent with tazemetostat (IC50 shift of second agent),OV-90 [3],C (Synergy > 2× IC50 shift)
same,Synergy or antagonism of second agent with tazemetostat (IC50 shift of second agent),COV434,C (Synergy > 2× IC50 shift)
CO[C@H]1C[C@@H]2CC[C@@H](C)[C@@](O)(O2)C(=O)C(=O)N2CCCC[C@H]2C(=O)O[C@H]([C@H](C)C[C@@H]2CC[C@@H](OCCO)[C@H](OC)C2)CC(=O)[C@H](C)/C=C(\C)[C@@H](O)[C@@H](OC)C(=O)[C@H](C)C[C@H](C)/C=C/C=C/C=C/1C [Everolimus],Synergy or antagonism of second agent with tazemetostat (IC50 shift of second agent),SUM159PT [4],C (Synergy > 2× IC50 shift)
same,Synergy or antagonism of second agent with tazemetostat (IC50 shift of second agent),BT549,A (Antagonism)
same,Synergy or antagonism of second agent with tazemetostat (IC50 shift of second agent),HCC1419,C (Synergy > 2× IC50 shift)
same,Synergy or antagonism of second agent with tazemetostat (IC50 shift of second agent),MDA-MB-175VII,C (Synergy > 2× IC50 shift)
Cc1nc(Nc2ncc(C(=O)Nc3c(C)cccc3Cl)s2)cc(N2CCN(CCO)CC2)n1 [Dasatinib],Synergy or antagonism of second agent with tazemetostat (IC50 shift of second agent),MDA-MB-231,C (Synergy > 2× IC50 shift)
same,Synergy or antagonism of second agent with tazemetostat (IC50 shift of second agent),SUM52PE,B (Synergy > 4× IC50 shift)
same,Synergy or antagonism of second agent with tazemetostat (IC50 shift of second agent),HCC1569,C (key: B: Synergy > 4× IC50 shift; Synergy > 2× IC50 shift; No Effect; Antagonism; X: Not Tested)
Nc1ncn([C@@H]2O[C@H](CO)[C@@H](O)[C@H]2O)c(=O)n1 [Azacitidine],Synergy or antagonism of second agent with tazemetostat (IC50 shift of second agent),HCC38,C (key: B: Synergy > 4× IC50 shift; Synergy > 2× IC50 shift; No Effect; Antagonism; X: Not Tested)
same,Synergy or antagonism of second agent with tazemetostat (IC50 shift of second agent),MDA-MB-468,C (key: B: Synergy > 4× IC50 shift; Synergy > 2× IC50 shift; No Effect; Antagonism; X: Not Tested)
same,Synergy or antagonism of second agent with tazemetostat (IC50 shift of second agent),SUM52PE,C (Synergy > 2× IC50 shift)
same,Synergy or antagonism of second agent with tazemetostat (IC50 shift of second agent),DU4475 [5],C (key: B: Synergy > 4× IC50 shift; Synergy > 2× IC50 shift; No Effect; Antagonism; X: Not Tested)
same,Synergy or antagonism of second agent with tazemetostat (IC50 shift of second agent),OV-90 [6],C (key: B: Synergy > 4× IC50 shift; Synergy > 2× IC50 shift; No Effect; Antagonism; X: Not Tested)
COc1cccc2c1C(=O)c1c(O)c3c(c(O)c1C2=O)C[C@@](O)(C(=O)CO)C[C@@H]3O[C@H]1C[C@H](N)[C@H](O)[C@H](C)O1 [Doxorubicin],Synergy or antagonism of second agent with tazemetostat (IC50 shift of second agent),SKOV3 [7],B (key: B: Synergy > 4× IC50 shift; Synergy > 2× IC50 shift; No Effect; Antagonism; X: Not Tested)
same,Synergy or antagonism of second agent with tazemetostat (IC50 shift of second agent),COV644*,C (Synergy > 2× IC50 shift)
same,Synergy or antagonism of second agent with tazemetostat (IC50 shift of second agent),OVMANA [8],C (key: B: Synergy > 4× IC50 shift; Synergy > 2× IC50 shift; No Effect; Antagonism; X: Not Tested)
same,Synergy or antagonism of second agent with tazemetostat (IC50 shift of second agent),ES-2,C (Synergy > 2× IC50 shift)
same,Synergy or antagonism of second agent with tazemetostat (IC50 shift of second agent),RMUGS*,B (key: B: Synergy > 4× IC50 shift; Synergy > 2× IC50 shift; No Effect; Antagonism; X: Not Tested)
COc1cc([C@@H]2c3cc4c(cc3[C@@H](O[C@@H]3O[C@@H]5CO[C@@H](C)O[C@H]5[C@H](O)[C@H]3O)[C@H]3COC(=O)[C@H]23)OCO4)cc(OC)c1O [Etoposide],Synergy or antagonism of second agent with tazemetostat (IC50 shift of second agent),HCC1143 [9],C (key: B: Synergy > 4× IC50 shift; Synergy > 2× IC50 shift; No Effect; Antagonism; X: Not Tested)
same,Synergy or antagonism of second agent with tazemetostat (IC50 shift of second agent),SUM159PT [10],C (key: B: Synergy > 4× IC50 shift; Synergy > 2× IC50 shift; No Effect; Antagonism; X: Not Tested)
Cc1cc(Nc2cc(N3CCN(C)CC3)nc(/C=C/c3ccccc3)n2)n[nH]1 [ENMD-2076],Synergy or antagonism of second agent with tazemetostat (IC50 shift of second agent),MDA-MB-453,A (Antagonism)
same,Synergy or antagonism of second agent with tazemetostat (IC50 shift of second agent),SUM52PE,C (Synergy > 2× IC50 shift)
same,Synergy or antagonism of second agent with tazemetostat (IC50 shift of second agent),MDA-MB-175VII,C (Synergy > 2× IC50 shift)
Nc1cc(C(F)(F)F)c(-c2cc(N3CCOCC3)nc(N3CCOCC3)n2)cn1 [BKM120],Synergy or antagonism of second agent with tazemetostat (IC50 shift of second agent),COV504,C (Synergy > 2× IC50 shift)
same,Synergy or antagonism of second agent with tazemetostat (IC50 shift of second agent),COV644*,C (Synergy > 2× IC50 shift)
same,Synergy or antagonism of second agent with tazemetostat (IC50 shift of second agent),A2780,C (Synergy > 2× IC50 shift)
same,Synergy or antagonism of second agent with tazemetostat (IC50 shift of second agent),SKOV3 [1],C (Synergy > 2× IC50 shift)
same,Synergy or antagonism of second agent with tazemetostat (IC50 shift of second agent),TOV112D,C (Synergy > 2× IC50 shift)
same,Synergy or antagonism of second agent with tazemetostat (IC50 shift of second agent),KURAMOCHI,C (Synergy > 2× IC50 shift)
same,Synergy or antagonism of second agent with tazemetostat (IC50 shift of second agent),DU4475 [11],A (Antagonism)
same,Synergy or antagonism of second agent with tazemetostat (IC50 shift of second agent),JH)S-4,C (Synergy > 2× IC50 shift)
same,Synergy or antagonism of second agent with tazemetostat (IC50 shift of second agent),BT-20,C (Synergy > 2× IC50 shift)
same,Synergy or antagonism of second agent with tazemetostat (IC50 shift of second agent),HCC1419,C (Synergy > 2× IC50 shift)
same,Synergy or antagonism of second agent with tazemetostat (IC50 shift of second agent),OVISE,C (Synergy > 2× IC50 shift)
same,Synergy or antagonism of second agent with tazemetostat (IC50 shift of second agent),COV434,C (Synergy > 2× IC50 shift)
Cc1sc2c(c1C)C(c1ccc(Cl)cc1)=N[C@@H](CC(=O)OC(C)(C)C)c1nnc(C)n1-2 [JQ1],Synergy or antagonism of second agent with tazemetostat (IC50 shift of second agent),CAOV-3,B (Synergy > 4× IC50 shift)
same,Synergy or antagonism of second agent with tazemetostat (IC50 shift of second agent),COV504,C (Synergy > 2× IC50 shift)
same,Synergy or antagonism of second agent with tazemetostat (IC50 shift of second agent),HCC1143 [12],C (Synergy > 2× IC50 shift)
same,Synergy or antagonism of second agent with tazemetostat (IC50 shift of second agent),A2780,B (Synergy > 4× IC50 shift)
same,Synergy or antagonism of second agent with tazemetostat (IC50 shift of second agent),SKOV3 [1],B (Synergy > 4× IC50 shift)
same,Synergy or antagonism of second agent with tazemetostat (IC50 shift of second agent),TOV21G,C (Synergy > 2× IC50 shift)
same,Synergy or antagonism of second agent with tazemetostat (IC50 shift of second agent),TOV112D,C (Synergy > 2× IC50 shift)
same,Synergy or antagonism of second agent with tazemetostat (IC50 shift of second agent),OV-90 [3],C (Synergy > 2× IC50 shift)
same,Synergy or antagonism of second agent with tazemetostat (IC50 shift of second agent),HCC1419,C (Synergy > 2× IC50 shift)
same,Synergy or antagonism of second agent with tazemetostat (IC50 shift of second agent),ES-2,C (Synergy > 2× IC50 shift)
